Data published in patent US20260226105A1, “Antimicrobial And Antibiofilm Peptides Sequences With Metal-Binding Motifs” (The Trustee of the University of Pennsylvania, priority 2021, published 2026).
Values after ≈ are worked out from the molar mass of the structure shown. Read-outs that look alike come from different tables or passages of the source.

Assays:
[1] = tested on: E. coli (KpC+1812446) biofilm; settings: Table 7, biofilm
E. coli (KpC1812446) [2] = settings: agent alone, BM2 minimal medium
[3] = tested on: K. pneumoniae (ATCC13883); assay: microbe, parasite or virus in culture; settings: Klebsiella pneumoniae
[4] = tested on: E. coli (KpC+1812446) planktonic cells; settings: Table 8, planktonic cells
[5] = tested on: K. pneumoniae (ATCC13883); settings: agent alone, BM2 minimal medium
E. coli (KpC1812446) [6] = assay: microbe, parasite or virus in culture; settings: Escherichia coli
S. aureus (ATCC 25923) = settings: Cu(II) in MH broth, determined in our laboratory
E. coli (ATCC 25922) = settings: Cu(II) in MH broth, determined in our laboratory
[7] = antibiotic in combination with CM15
[8] = antibiotic in combination with GGH-CM15
[9] = antibiotic in combination with VIH-CM15

SMILES	MBIC Antibiotic alone [1]	MBIC Antibiotic + Peptide [1, 7]	MBIC Antibiotic + Peptide [1, 8]	MBIC Antibiotic + Peptide [1, 9]	MBIC (E. coli (KpC1812446) [2])	MIC [3]	MBIC Antibiotic alone [4]	MBIC Antibiotic + Peptide [4, 7]	MBIC Antibiotic + Peptide [4, 8]	MBIC Antibiotic + Peptide [4, 9]	MBIC [5]	MIC (E. coli (KpC1812446) [6])	toxic level (S. aureus (ATCC 25923))	toxic level (E. coli (ATCC 25922))
CC1(C)S[C@@H]2[C@H](NC(=O)[C@H](N)c3ccccc3)C(=O)N2[C@H]1C(=O)O [AmP, ampicillin]	366 µM	366 µM	366 µM	366 µM	>183 µM	> 183 µM	366 µM	366 µM	366 µM	366 µM	>183 µM	> 183 µM	–	–
O=C(N[C@H](CO)[C@H](O)c1ccc([N+](=O)[O-])cc1)C(Cl)Cl [CHL, chloramphenicol]	396 µM	396 µM	396 µM	396 µM	>198 µM	> 198 µM	396 µM	0.8 µM	3 µM	0.8 µM	>198 µM	> 198 µM	–	–
O.O.O.O.O.O=S(=O)([O-])[O-].[Cu+2] [Cu(II) ions, CuSO4·5H2O]	–	–	–	–	–	–	–	–	–	–	–	–	7.8 mM	7.8 mM
C[C@@H](O)[C@H]1C(=O)N2C(C(=O)O)=C(S[C@@H]3CN[C@H](C(=O)N(C)C)C3)[C@H](C)[C@H]12 [MER, meropenem]	0.6 µM	0.16 µM	0.013 µM	0.04 µM	0.6 µM	> 167 µM	0.6 µM	0.6 µM	0.16 µM	0.3 µM	>167 µM	0.6 µM (≈ 0.23 µg/mL)	–	–
[H]/N=C(/N)N[C@H]1[C@H](O)[C@@H](O)[C@H](O[C@@H]2O[C@@H](C)[C@](O)(C=O)[C@H]2O[C@@H]2O[C@@H](CO)[C@H](O)[C@@H](O)[C@@H]2NC)[C@@H](N/C(N)=N\[H])[C@@H]1O [STR, streptomycin]	14 µM	4 µM	4 µM	7 µM	14 µM	> 110 µM	14 µM	4 µM	14 µM	0.4 µM	>110 µM	14 µM (≈ 8.14 µg/mL)	–	–
